One experiment addresses T1, BRAF V600E (Homo sapiens, UniProt P15056, V600E).
T1 construct: expressed in transfected cells
Put plainly: Cellular assay of target protein degradation, T-Rex 293 cells stably transfected with HA-BRAF_V600E (HA immunofluorescence, high content imaging). As to conditions: T-Rex 293 HA-BRAF V600E; for DC50: half maximal degradation, read-out: BRaf V600E DC50; for Dmax: maximum degradation observed. It counts as cell-based. A digest of the protocol: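 24 h compound exposure, 1 μM–0.1 nM final, 0.1% DMSO, 37 °C; cells induced with 1 ng/mL doxycycline. PFA fix, Triton permeabilize, anti-HA overnight 4 °C, Hoechst/phalloidin counterstain. Output: DC50, Dmax as % control.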

For another experiment, the target named is T2, BRAF G466V (Homo sapiens, UniProt P15056, G466V).
T2 construct: expressed in transfected cells
The experiment can be described thus: Cellular assay of target protein degradation, T-Rex 293 cells stably transfected with HA-BRAF G466V (HA immunofluorescence, high content imaging). Format: cell-based. The following applies: T-Rex 293 HA-BRAF G466V; for DC50: half maximal degradation, read-out: BRaf G466V DC50; for Dmax: maximum degradation observed. A digest of the protocol: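 24 h compound, 30 nM–3 pM final, 0.1% DMSO, 37° C; HA-BRAF G466V induced with 0.75 ng/mL doxycycline. PFA fix, Triton perm, anti-HA + Alexa fluor secondary, Hoechst/phalloidin counterstain; imaging. DC50, Dmax (% of control).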

Molecules are shown by their SMILES. Bounds are passed on as bounds.

T2 sequence (P15056 whole entry G466V): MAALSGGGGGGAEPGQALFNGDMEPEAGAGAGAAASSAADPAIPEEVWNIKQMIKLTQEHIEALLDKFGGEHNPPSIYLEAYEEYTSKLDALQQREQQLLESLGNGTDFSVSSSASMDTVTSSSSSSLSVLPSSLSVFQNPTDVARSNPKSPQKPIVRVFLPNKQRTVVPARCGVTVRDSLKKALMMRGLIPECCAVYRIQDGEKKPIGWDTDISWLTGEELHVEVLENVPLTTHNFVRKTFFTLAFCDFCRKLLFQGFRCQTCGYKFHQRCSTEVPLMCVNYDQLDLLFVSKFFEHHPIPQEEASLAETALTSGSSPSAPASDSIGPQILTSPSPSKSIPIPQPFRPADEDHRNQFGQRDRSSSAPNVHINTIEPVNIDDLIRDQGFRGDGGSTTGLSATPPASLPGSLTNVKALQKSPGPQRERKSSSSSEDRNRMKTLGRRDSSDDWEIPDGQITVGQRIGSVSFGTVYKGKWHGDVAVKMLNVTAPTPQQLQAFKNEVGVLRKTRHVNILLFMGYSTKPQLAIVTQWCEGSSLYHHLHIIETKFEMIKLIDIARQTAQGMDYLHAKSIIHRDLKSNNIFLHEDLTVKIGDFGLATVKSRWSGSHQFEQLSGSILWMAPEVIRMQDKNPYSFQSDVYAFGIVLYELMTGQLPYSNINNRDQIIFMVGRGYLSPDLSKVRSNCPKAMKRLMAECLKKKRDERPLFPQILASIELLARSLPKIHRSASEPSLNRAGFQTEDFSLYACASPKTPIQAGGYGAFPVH
T1 sequence (P15056 whole entry V600E): as the sequence (P15056 whole entry G466V) above, with V466G, V600E counted along it

With `O=C1CCC(N2Cc3cc(OC[C@@H](O)CN4CC5(C4)CN(c4ccc(-c6cnc7[nH]cc(C(=O)c8c(F)ccc(NS(=O)(=O)N9CC[C@@H](F)C9)c8F)c7c6)cc4)C5)ccc3C2=O)C(=O)N1` (stereo partly drawn) [Compound 122, (3R)-N-{3-[5-(4-{6-[(2S)-3-{[2-(2,6-dioxopiperidin-3-yl)-1-oxo-2,3-dihydro-1H-isoindol-5-yl]oxy}-2-hydroxypropyl]-2,6-diazaspiro[3.3]heptan-2-yl}phenyl)-1H-pyrrolo[2,3-b]pyridine-3-carbonyl]-2,4-difluorophenyl}-3-fluoropyrrolidine-1-sulfonamide], on BRAF V600E, the DC50 (in general, the midpoint of the concentration-degradation curve) lay within 5 to 50 nM and the greatest degradation seen (Dmax) (as a rule, the greatest extent of degradation seen) fell in the range of 35 to 70%. Further, on BRAF G466V, the DC50 lay in the range of 1 to 10 nM and the Dmax was > 70%.
The like results for `O=C1CC[C@H](N2Cc3cc(OC[C@H](O)CN4CC5(C4)CN(c4ccc(-c6cnc7[nH]cc(C(=O)c8c(F)ccc(NS(=O)(=O)N9CC[C@@H](F)C9)c8F)c7c6)cc4)C5)ccc3C2=O)C(=O)N1` [Compound 123, (3R)—N-[3-[5-[4-[6-[(2R)-3-[2-[(3S)-2,6-dioxo-3-piperidyl]-1-oxo-isoindolin-5-yl]oxy-2-hydroxy-propyl]-2,6-diazaspiro[3.3]heptan-2-yl]phenyl]-1H-pyrrolo[2,3-b]pyridine-3-carbonyl]-2,4-difluoro-phenyl]-3-fluoro-pyrrolidine-1-sulfonamide] were, in that order, 5 to 50 nM, 35 to 70%, 1 to 10 nM and > 70%.
The like results for `O=C1CC[C@@H](N2Cc3cc(OC[C@H](O)CN4CC5(C4)CN(c4ccc(-c6cnc7[nH]cc(C(=O)c8c(F)ccc(NS(=O)(=O)N9CC[C@@H](F)C9)c8F)c7c6)cc4)C5)ccc3C2=O)C(=O)N1` [Compound 124, (3R)—N-[3-[5-[4-[6-[(2R)-3-[2-[(3R)-2,6-dioxo-3-piperidyl]-1-oxo-isoindolin-5-yl]oxy-2-hydroxy-propyl]-2,6-diazaspiro[3.3]heptan-2-yl]phenyl]-1H-pyrrolo[2,3-b]pyridine-3-carbonyl]-2,4-difluoro-phenyl]-3-fluoro-pyrrolidine-1-sulfonamide] were, in that order, 5 to 50 nM, 35 to 70%, 1 to 10 nM and > 70%.
In the case of `O=C1CCC(N2Cc3cc(C4CCN(C[C@@H]5CCN(c6ccc(-c7cnc8[nH]cc(C(=O)c9c(F)ccc(NS(=O)(=O)N%10CC[C@@H](F)C%10)c9F)c8c7)cc6)C[C@@H]5F)CC4)ccc3C2=O)C(=O)N1` (stereo partly drawn) [Compound 125, (3R)-N-[3-(5-{4-[(3R,4S)-4-({4-[2-(2,6-dioxopiperidin-3-yl)-1-oxo-2,3-dihydro-1H-isoindol-5-yl]piperidin-1-yl}methyl)-3-fluoropiperidin-1-yl]phenyl}-1H-pyrrolo[2,3-b]pyridine-3-carbonyl)-2,4-difluorophenyl]-3-fluoropyrrolidine-1-sulfonamide], on BRAF V600E, the DC50 is 5 to 50 nM and the greatest degradation seen (Dmax) fell in the range of 35 to 70%. Further, at BRAF G466V, the half-maximal degradation concentration (DC50) lay within 1 to 10 nM and the greatest degradation seen (Dmax) is > 70%.
The like results for `CN(CCN1CCN(c2ccc(-c3cnc4[nH]cc(C(=O)c5c(F)ccc(NS(=O)(=O)N6CC[C@@H](F)C6)c5F)c4c3)cc2)CC1)[C@H]1C[C@@H](Oc2ccc3c(c2)CN(C2CCC(=O)NC2=O)C3=O)C1` (stereo partly drawn) [Compound 126, (3R)-N-[2,4-difluoro-3-(5-{4-[4-(2-{methyl[(1s,3s)-3-{[2-(2,6-dioxopiperidin-3-yl)-1-oxo-2,3-dihydro-1H-isoindol-5-yl]oxy}cyclobutyl]amino}ethyl)piperazin-1-yl]phenyl}-1H-pyrrolo[2,3-b]pyridine-3-carbonyl)phenyl]-3-fluoropyrrolidine-1-sulfonamide] were, in that order, 5 to 50 nM, 35 to 70%, 1 to 10 nM and 35 to 70%.
Take `O=C1CCC(N2Cc3cc(C4CCN(CCC5CCN(c6ccc(-c7cnc8[nH]cc(C(=O)c9c(F)ccc(NS(=O)(=O)N%10CC[C@@H](F)C%10)c9F)c8c7)cc6)CC5)CC4)ccc3C2=O)C(=O)N1` (stereo partly drawn) [Compound 127, (3R)-N-[3-(5-{4-[4-(2-{4-[2-(2,6-dioxopiperidin-3-yl)-1-oxo-2,3-dihydro-1H-isoindol-5-yl]piperidin-1-yl}ethyl)piperidin-1-yl]phenyl}-1H-pyrrolo[2,3-b]pyridine-3-carbonyl)-2,4-difluorophenyl]-3-fluoropyrrolidine-1-sulfonamide]: on BRAF V600E, the DC50 is < 5 nM and the greatest degradation seen (Dmax) is < 35%. For the same compound, at BRAF G466V, the DC50 was in the range of 1 to 10 nM and the greatest degradation seen (Dmax) is > 70%.
The like results for `O=C1CC[C@H](N2Cc3cc(C[C@@H](O)CN4CC5(C4)CN(c4ccc(-c6cnc7[nH]cc(C(=O)c8c(F)ccc(NS(=O)(=O)N9CC[C@@H](F)C9)c8F)c7c6)cc4)C5)ccc3C2=O)C(=O)N1` [Compound 128, (3R)-N-{3-[5-(4-{6-[(2R)-3-{2-[(3S)-2,6-dioxopiperidin-3-yl]-1-oxo-2,3-dihydro-1H-isoindol-5-yl}-2-hydroxypropyl]-2,6-diazaspiro[3.3]heptan-2-yl}phenyl)-1H-pyrrolo[2,3-b]pyridine-3-carbonyl]-2,4-difluorophenyl}-3-fluoropyrrolidine-1-sulfonamide] were, in that order, 5 to 50 nM, 35 to 70%, 1 to 10 nM and > 70%.
The like results for `O=C1CC[C@@H](N2Cc3cc(C[C@@H](O)CN4CC5(C4)CN(c4ccc(-c6cnc7[nH]cc(C(=O)c8c(F)ccc(NS(=O)(=O)N9CC[C@@H](F)C9)c8F)c7c6)cc4)C5)ccc3C2=O)C(=O)N1` [Compound 129, (3R)-N-{3-[5-(4-{6-[(2R)-3-{2-[(3R)-2,6-dioxopiperidin-3-yl]-1-oxo-2,3-dihydro-1H-isoindol-5-yl}-2-hydroxypropyl]-2,6-diazaspiro[3.3]heptan-2-yl}phenyl)-1H-pyrrolo[2,3-b]pyridine-3-carbonyl]-2,4-difluorophenyl}-3-fluoropyrrolidine-1-sulfonamide] were, in that order, 5 to 50 nM, 35 to 70%, 1 to 10 nM and > 70%.
The like results for `O=C1CCC(N2Cc3cc(C[C@H](O)CN4CC5(C4)CN(c4ccc(-c6cnc7[nH]cc(C(=O)c8c(F)ccc(NS(=O)(=O)N9CC[C@@H](F)C9)c8F)c7c6)cc4)C5)ccc3C2=O)C(=O)N1` (stereo partly drawn) [Compound 130, (3R)-N-{3-[5-(4-{6-[(2S)-3-[2-(2,6-dioxopiperidin-3-yl)-1-oxo-2,3-dihydro-1H-isoindol-5-yl]-2-hydroxypropyl]-2,6-diazaspiro[3.3]heptan-2-yl}phenyl)-1H-pyrrolo[2,3-b]pyridine-3-carbonyl]-2,4-difluorophenyl}-3-fluoropyrrolidine-1-sulfonamide] were, in that order, 5 to 50 nM, 35 to 70%, 1 to 10 nM and 35 to 70%.
For `O=C1CCC(N2Cc3cc(N4CCN(CC5CN(c6ccc(-c7cnc8[nH]cc(C(=O)c9c(F)ccc(NS(=O)(=O)N%10CC[C@@H](F)C%10)c9F)c8c7)cc6F)C5)CC4)ccc3C2=O)C(=O)N1` (stereo partly drawn) [Compound 131, (3R)-N-[3-(5-{4-[3-({4-[2-(2,6-dioxopiperidin-3-yl)-1-oxo-2,3-dihydro-1H-isoindol-5-yl]piperazin-1-yl}methyl)azetidin-1-yl]-3-fluorophenyl}-1H-pyrrolo[2,3-b]pyridine-3-carbonyl)-2,4-difluorophenyl]-3-fluoropyrrolidine-1-sulfonamide], at BRAF V600E, the DC50 is 5 to 50 nM and the greatest degradation seen (Dmax) is 35 to 70%. For the same compound, at BRAF G466V, the DC50 lay within 1 to 10 nM and the Dmax was 35 to 70%.
On to `COc1cc(N2CC3(CN(CC4CCN(c5ccc(-c6cnc7[nH]cc(C(=O)c8c(F)ccc(NS(=O)(=O)N9CC[C@@H](F)C9)c8F)c7c6)cc5F)CC4)C3)C2)cc2c1C(=O)N(C1CCC(=O)NC1=O)C2` (stereo partly drawn) [Compound 132, (3R)-N-[3-(5-{4-[4-({6-[2-(2,6-dioxopiperidin-3-yl)-7-methoxy-1-oxo-2,3-dihydro-1H-isoindol-5-yl]-2,6-diazaspiro[3.3]heptan-2-yl}methyl)piperidin-1-yl]-3-fluorophenyl}-1H-pyrrolo[2,3-b]pyridine-3-carbonyl)-2,4-difluorophenyl]-3-fluoropyrrolidine-1-sulfonamide], for which the 50% degradation concentration (DC50) is 5 to 50 nM on BRAF V600E and < 1 nM at BRAF G466V. Besides, the figures for the Dmax on BRAF V600E and at BRAF G466V were 35 to 70% and > 70%, respectively.
Regarding `COc1cc(N2CC3(CN(CC4CCN(c5ccc(-c6cnc7[nH]cc(C(=O)c8c(F)ccc(NS(=O)(=O)N9CC[C@@H](F)C9)c8F)c7c6)cn5)CC4)C3)C2)cc2c1C(=O)N(C1CCC(=O)NC1=O)C2` (stereo partly drawn) [Compound 133, (3R)-N-[3-(5-{6-[4-({6-[2-(2,6-dioxopiperidin-3-yl)-7-methoxy-1-oxo-2,3-dihydro-1H-isoindol-5-yl]-2,6-diazaspiro[3.3]heptan-2-yl}methyl)piperidin-1-yl]pyridin-3-yl}-1H-pyrrolo[2,3-b]pyridine-3-carbonyl)-2,4-difluorophenyl]-3-fluoropyrrolidine-1-sulfonamide], at BRAF V600E, the DC50 lay in the range of 5 to 50 nM and the Dmax is 35 to 70%. On BRAF G466V, the DC50 was < 1 nM and the Dmax was > 70%.
